From patent US20250127696A1, “COMPOSITION FOR PREVENTING OR IMPROVING SKIN-AGING CONTAINING A THYMOL ESTER-BASED COMPOUND” (AMOREPACIFIC CORPORATION, priority 2023, published 2025)

Key:
Assay type in all cases: cell-based, human
[1] = tested on: β-galactosidase in melanocytes; experiment: beta-galactosidase assay (senescence staining) after UVB; conditions: UVB 5 mJ/cm^2 twice at 24-hour intervals, then treated and incubated 2 weeks; vs UVB only; FIG. 4
Method: (§1) Melanocytes were purchased from Cascade Biologics as cells cultured in the foreskin of newborn African-American males, and cultured using Medium254 medium mixed with human melanocyte growth supplement (Life technologies).
Melanocytes were irradiated with 5 mJ/cm^2 of UVB twice at 24-hour intervals using a 1 UVB UV irradiator (Bio-Sun), and then treated with Melasolv and incubated for 2 weeks. To measure the degree of cellular senescence, a beta-galactosidase assay was performed using a beta-gal staining kit from Life technologies. A photograph was taken using an optical microscope (ECLIPSE TS100 from NIKON), and then the number of cells with stained beta-galactosidase was counted.

melanocytes [2] = experiment: Predicted transcriptome age (RNA-age) of melanocytes; conditions: 10 ppm, 24 hours, vs untreated control; RNAAgeCalc on FPKM data, skin tissue; FIG. 2
Method: as §1
RNA was extracted from melanocytes treated with 10 ppm of Melasolv for 24 hours using TRIzol reagent (Life technologies). This RNA was used to prepare a library using the Illumina TruSeq Stranded Total RNA Library Prep kit (Illumina, San Diego, CA, USA), and then RNA-sequencing was performed using the NovaSeq 6000 platform (Illumina).
Thereafter, a model for predicting age based on approximately 16,000 gene expression values of RNA-seq data was applied to measure the RNA-age of the untreated control melanocytes (—in the graph of FIG. 2) and the RNA-age of the melanocytes treated with Melasolv. Specifically, the RNA-age used RNAAgeCalc package, which can calculate transcriptome age from RNAseq data. Among the transcriptome data, FPKM data was entered as input and skin tissue was entered as an argument for calculation. • (RNAAgeCalc pakage: https://bioconductor.org/packages/release/bioc/html/RNAAgeCalc.html, • Ren X, Kuan P F (2020). “A multi-tissue transcriptional age calculators.” PLOS ONE, 15(8),-20. doi: 10.1371/journal.pone.0237006)

melanocytes [3] = experiment: Observation of cell morphology after UVB-induced senescence; conditions: UVB 5 mJ/cm^2 twice at 24-hour intervals, then treated and incubated 2 weeks; FIG. 3
Method: as §1
Melanocytes were irradiated with 5 mJ/cm^2 of UVB twice at 24-hour intervals using a 1 UVB UV irradiator (Bio-Sun), and then treated with Melasolv and incubated for 2 weeks. A photograph of the cells is taken using an optical microscope (ECLIPSE TS100 from NIKON), and the shape of the cells is examined. Referring to FIG. 3, when treated with ultraviolet (UVB) that induce cellular senescence (Chr UVB; Chronic UVB in FIG. 3), it could be confirmed that the skin cells were flattened or enlarged, as shown by three spots that were slightly larger than the others in the middle of the photograph.

Structure (SMILES): COc1cc(/C=C/C(=O)Oc2cc(C)ccc2C(C)C)cc(OC)c1OC [Melasolv, (5-methyl-2-propan-2-ylphenyl) (E)-3-(3,4,5-trimethoxyphenyl) prop-2-enoate]
- β-galactosidase (number of stained cells) [1]: reduced to a statistically significant degree
- decrease of RNA-age of melanocytes (melanocytes [2]): about 4 years
- change in cell morphology (flattened or enlarged cells) (melanocytes [3]): reduces changes in skin cells caused by UVB
